In patent publication US20050054025A1 (priority 2003, published 2005):
In brackets after ≈: the same amount, converted by molar mass. Marks after values point to notes of the source that are not given here.

Key:
[1] = molecular target: acetylcholinesterase (Homo sapiens, UniProt P22303); assay: biochemical; type: biochemical; conditions: for IC20: read-out: Porex Dot Test IC20
[2] = test system: acetylcholinesterase; conditions: cited from earlier work

Chain of acetylcholinesterase (Homo sapiens, UniProt P22303) (P22303 32-614, species assumed): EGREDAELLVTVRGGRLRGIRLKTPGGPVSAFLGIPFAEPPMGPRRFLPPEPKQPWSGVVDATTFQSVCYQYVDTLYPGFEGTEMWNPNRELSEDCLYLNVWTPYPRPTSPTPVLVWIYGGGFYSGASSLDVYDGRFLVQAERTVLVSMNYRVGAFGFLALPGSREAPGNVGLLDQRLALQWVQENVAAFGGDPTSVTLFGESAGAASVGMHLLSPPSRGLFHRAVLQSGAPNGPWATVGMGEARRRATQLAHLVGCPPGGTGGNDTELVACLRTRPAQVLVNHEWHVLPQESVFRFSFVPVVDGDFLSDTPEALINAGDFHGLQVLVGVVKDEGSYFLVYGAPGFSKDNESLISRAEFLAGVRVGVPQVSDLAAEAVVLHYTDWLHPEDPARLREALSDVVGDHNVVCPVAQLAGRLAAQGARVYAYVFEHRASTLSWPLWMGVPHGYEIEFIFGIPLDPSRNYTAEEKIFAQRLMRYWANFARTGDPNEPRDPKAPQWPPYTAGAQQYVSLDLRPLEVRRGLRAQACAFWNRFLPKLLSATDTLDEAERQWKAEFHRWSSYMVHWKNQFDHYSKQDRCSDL

Row | Compound | IC20 [1] | EnviroLogix IC20 [2] | other results
1 | CNC(=O)O/N=C/C(C)(C)SC [Aldicarb] | 33 ng/mL (≈ 173 nM) | – | –
2 | CNC(=O)Oc1ccccc1OC(C)C [Baygon (propoxur), propoxur] | 9 ng/mL (≈ 43 nM) | 50 μg/L | –
3 | CNC(=O)Oc1cccc2ccccc12 [Carbaryl] | 9 ng/mL (≈ 44.7 nM) | 110 μg/L | –
4 | CNC(=O)Oc1cccc2c1OC(C)(C)C2 [Carbofuran] | 0.4 ng/mL (≈ 1.81 nM) | 40 μg/L | –
5 | CCOP(=S)(OCC)Oc1nc(Cl)c(Cl)cc1Cl [Chloropyrifos] | – | 5.2 μg/L | IC50 [1]: 285 pM
6 | CCOP(=S)(OCC)Oc1cc(C)nc(C(C)C)n1 [Diazinon] | 0.14 ng/mL (≈ 0.46 nM) | – | EnviroLogix IC50 (cells marked *) [2]: 3.0* μg/L
7 | CCOP(=S)(OCC)SCCSCC [Disulfoton] | 0.5 ng/mL (≈ 1.82 nM) | – | –
8 | CCOC(=O)CC(SP(=S)(OC)OC)C(=O)OCC (stereo not drawn) [Malithion] | – | 60 μg/L | Porex Dot Test IC20 [1]: 0.11 ng/mL
9 | CNC(=O)ON=C(C)SC [Methomyl] | 0.011 ng/mL (≈ 0.0678 nM) | – | –
10 | CNC(=O)O/N=C(\SC)C(=O)N(C)C [Oxymyl] | – | 100 μg/L | Porex Dot Test IC20 [1]: 16.7 ng/mL
11 | CCOP(=O)(OCC)Oc1ccc([N+](=O)[O-])cc1 [Paraoxon] | – | – | detectable amount using instrument detection [1]: about 0.5 ng/mL; detectable level, determined visually [1]: 10 ng/mL
12 | CCOP(=S)(OCC)SCSC(C)(C)C [Terbufos] | 143 ng/mL (≈ 496 nM) | – | EnviroLogix IC50 (cells marked *) [2]: 12* μg/L
